These results are taken from patent US20230211020A1, “TREATMENT OF INFECTIONS” (ACT Therapeutics Ltd, priority 2020, published 2023).

What is called ED50 is the midpoint of the dose-response relation.

Data set [1] can be described thus: Tissue specific uptake of Evans Blue in thigh muscle with ACT (Example 2, Study 1). The format is in vivo. The settings on record: for EB ratio of the left (treated) to right (untreated) thigh muscle, average±SD: 30 min after treatment; for increase in the uptake upon ACT treatment: US insonated tissue vs. untreated. The method, then: The tissue specific uptake of Evans Blue (EB, a fluorescent dye) has been investigated in a mouse model. Under physiologic conditions, the endothelium is impermeable to albumin, and Evans blue bound albumin remains confined within blood vessels. Thus, Evans blue is often used as a model compound in drug delivery studies [Bohmer et al., J Controlled Release, 148, Issue 1, 2010, pp. 18-24].
Female Balb/c nude mice were used. Before treatment, the mice were administered surgical anesthesia by subcutaneous injection of a mix of Fentanyl (0.05 mg/kg), Midazolam (5 mg/kg), and Medetomidine (0.5 mg/kg). An intravenous cannula (BD Neoflon™ 24 GA) was placed in the tail vein. Patency was verified by injection of a slight amount of 0.9% sodium chloride for injection after which a small amount of heparin (10 U/ml) was injection to prevent clotting. The hub of the cannula was filled with 0.9% sodium chloride for injection to eliminate any dead space and closed with a cap. The cannula was secured to the tail with surgical tape.
Evans Blue solution (50 mg EB/kg) was injected i.v. followed immediately by 2 ml/kg of the cluster dispersion as detailed in Example 1. Two groups where compared (N=3 for each group): 1) EB+cluster dispersion and 2) EB+cluster dispersion+Activation and Enhancement ultrasound insonation.
The left hind limb of the mouse was placed in a water bath with two US transducers poised for insonation of the left thigh. Ultrasound Activation insonation was provided by a VScan clinical ultrasound scanner (GE Healthcare) with a 2 MHz probe for 45 seconds (MI=0.8) starting from the injection time. This was immediately followed by the Enhancement step comprising 5 minutes 500 kHz ultrasound insonation (MI=0.2) using a single element transducer (Imasonic SAS). Thirty minutes after treatment the animals were sacrificed, tissue samples; thigh muscle from the treated (left) leg and thigh muscle from the contra lateral untreated leg, were harvested and Evans Blue content extracted and quantified. The concentration in the treated thigh muscle was divided by the concentration in the untreated thigh muscle for each animal (matched pair) to provide a dimensionless ratio of the increased uptake in the treated muscle. A one-way ANOVA was applied to the data.

Data set [2] deals with methicillin susceptible strain of Staphylococcus aureus. The data set can be described thus: Neutropenic staphylococcal thigh infection model, Levofloxacin with or without ACT (Example 3). Format: in vivo. The settings on record: mice, dose-response study, read-out: ED50 (dose that induces a half maximal decline in bacterial density). An excerpt:
An established experimental model of staphylococcal thigh infection in a neutropenic thigh infection model was used and neutropenia will be induced with cyclophosphamide. The thigh infection model provides a sensitive experimental system for initial studies of antimicrobial efficacy in a mammalian system. This model is the most standardised for the evaluation of antimicrobial-microbial interactions combined with antimicrobial pharmacokinetics assessed in serum and tissues samples.
The challenge isolate was methicillin susceptible strain of Staphylococcus aureus is and both thighs were inoculated. Treatment was initiated 2 h after inoculation, thighs was harvested after 26 h and the bacterial density (colony forming units, CFU) in the excised tissue was determined. An initial dose finding study was performed to define the LEV ED50 (the dose that induces a half maximal decline in bacterial density). Within the study, LEV was be dosed intraperitoneal at 20 mg/kg.
The cluster composition investigated was as detailed in Example 1. […]
The bacterial density in the thighs harvested from the various groups was determined by growing a diluted sample of the excised tissue, homogenized in sterile PBS, on a plate with growth medium and counting the number of CFU.

Data set [3] relates to T. saginata and Taenia solium (pork tapeworm) infection. The settings on record: in vivo; cited from earlier work.

`Cc1cc(-c2ccc(/N=N/c3ccc4c(S(=O)(=O)O)cc(S(=O)(=O)O)c(N)c4c3O)c(C)c2)ccc1/N=N/c1ccc2c(S(=O)(=O)O)cc(S(=O)(=O)O)c(N)c2c1O` [EB, Evans Blue]: the “EB ratio of the left (treated) to right (untreated) thigh muscle, average±SD” value in data set [1] (EB 50 mg/kg i.v. + cluster dispersion 2 ml/kg + Activation and Enhancement US insonation) is recorded as 2.0±0.3; in data set [1] (EB 50 mg/kg i.v. + cluster dispersion 2 ml/kg, no US insonation), 1.1±0.2. In addition, the entries for the “increase in the uptake upon ACT treatment” value in data set [1] and in data set [1] (listed as Evans Blue) were “about 100%” and 100%, respectively.
As to `C[C@H]1COc2c(N3CCN(C)CC3)c(F)cc3c(=O)c(C(=O)O)cn1c23` [LEV, Levofloxacin], the ED50 in data set [2] is about 24 mg/kg.
With `O=C(Nc1ccc([N+](=O)[O-])cc1Cl)c1cc(Cl)ccc1O` [Niclosamide], in data set [3], the cure rates entry is reported as “approximately 90%”.
